For one molecule, Kp results are on record in ChEMBL document CHEMBL3868634, “Animal models in the pharmacokinetic/pharmacodynamic evaluation of antimicrobial agents” (Bioorg Med Chem, 2016).

The series in a line: Ratio of AUC in mouse epithelial lining fluid to AUC in mouse serum. The settings on record: read-out: Ratio AUC. The class given is ADME.

Regarding `CC(C)(O/N=C(\C(=O)N[C@@H]1C(=O)N2C(C(=O)[O-])=C(C[n+]3ccccc3)CS[C@H]12)c1csc(N)n1)C(=O)O` [CEFTAZIDIME], the Kp stood at 0.201.
